One experiment has as its system cAMP. Briefly: cAMP level in mouse kidney tissue. It counts as in vivo. Conditions: PC1 conditional knockout mouse kidneys, VX-809-treated vs untreated. The procedure:
FIG. 4A, FIG. 4B, FIG. 4C, FIG. 4D, and FIG. 4E show (FIG. 4A-FIG. 4B) cAMP levels are reduced by VX-809. (FIG. 4A) cAMP levels in mouse tissue were reduced by VX-809. The kidney samples (n=6) analyzed were taken from those depicted in FIG. 1. (FIG. 4B) Confluent PN and PH cells were treated with VX-809 (10 μM) or DMSO for 16 hand then treated with forskolin (100 μM) for 30 min before the cells were harvested for the assay. Columns represent means±SEM. Statistical analysis was performed using a two-tailed Student's t-test. Each set of data is from three individual wells; Note that resting cAMP is greater in PN vs PH cells as previously shown (25). Also note that forskolin caused a large increase in cAMP. A smaller increase occurred with IBMX. […] The data were analyzed by non-parametric t-test. […]
It has been shown previously in both animal and cell culture models of ADPKD that cells lacking functional PC1 have elevated cAMP levels when compared to normal. To assess the effect of CFTR correctors, cAMP activity was measured in PC1 conditional knockout mouse kidneys and in PN cells that were either left untreated or treated with VX-809. […]
Cyclic AMP assay. […] Cyclic AMP levels were measured with a direct cAMP Enzyme Immunoassay Kit (Sigma, #CA200) according to the manufacturer's protocol. The results are expressed as pmole/ml. […]
In general terms: Changes in cAMP serve as a functional read-out for many G protein-coupled receptors.

For the next experiment, the system named is cAMP in PN cells. Kind of experiment: Cyclic AMP enzyme immunoassay in cells. It counts as cell-based, mouse. Here is the method: (§1) FIG. 4A, FIG. 4B, FIG. 4C, FIG. 4D, and FIG. 4E show (FIG. 4A-FIG. 4B) cAMP levels are reduced by VX-809. (FIG. 4A) cAMP levels in mouse tissue were reduced by VX-809. The kidney samples (n=6) analyzed were taken from those depicted in FIG. 1. (FIG. 4B) Confluent PN and PH cells were treated with VX-809 (10 μM) or DMSO for 16 hand then treated with forskolin (100 μM) for 30 min before the cells were harvested for the assay. Columns represent means±SEM. Statistical analysis was performed using a two-tailed Student's t-test. Each set of data is from three individual wells; Note that resting cAMP is greater in PN vs PH cells as previously shown (25). Also note that forskolin caused a large increase in cAMP. A smaller increase occurred with IBMX. However, the increase induced by forskolin alone was similar to that by IBMX plus forskolin. […] (FIG. 4C, FIG. 4D, and FIG. 4E) Adenylyl cyclase expression. (FIG. 4C) Western blot showing the expression of adenylyl cyclase (AC) 6 and AC3 in treated and control PN cells. (FIG. 4D-FIG. 4E) Columns represent means±SEM of the AC3 and AC6 expression. The data were analyzed by non-parametric t-test. The experiment was repeated four times. For all graphs, *P<0.05, **P<0.01, and ***P<0.001;
It has been shown previously in both animal and cell culture models of ADPKD that cells lacking functional PC1 have elevated cAMP levels when compared to normal. To assess the effect of CFTR correctors, cAMP activity was measured in PC1 conditional knockout mouse kidneys and in PN cells that were either left untreated or treated with VX-809. […] Cells were treated with forskolin, which increased cAMP levels drastically (FIG. 4B). It should be noted that VX-809 reduced the forskolin-induced increase in cAMP, indicating a direct action of VX-809 on adenylyl cyclase activity. […] Treating PN cells with forskolin or IBMX (FIG. 4B) increased the cAMP activity by approximately 10-fold.
Cyclic AMP assay. Confluent cells were treated with VX-809 (10 μM) or DMSO for 16 h before being harvested for assay. Cyclic AMP levels were measured with a direct cAMP Enzyme Immunoassay Kit (Sigma, #CA200) according to the manufacturer's protocol. The results are expressed as pmole/ml. Statistical analysis was performed using a two-tailed Student's t-test.

In experiment [1] the test system is adenylyl cyclase (AC) 6 and AC3 in PN cells. Briefly: Western blot of adenylyl cyclase expression. It counts as cell-based, mouse. Conditions: PN cells treated with VX-809. The procedure: as §1
There are two classes of adenylyl cyclases that are regulated by intracellular Ca^2+: one class is activated, and the other inhibited. […]
(A western blot detects proteins with antibodies after separation by electrophoresis.)

Experiment [2] relates to Hsp27, Hsp70, and Hsp90 in PN cells. Kind of experiment: Disappearance of Hsps after translation block with cycloheximide. In kind it is cell-based, mouse. Conditions: VX-809 10 μM with cycloheximide 25 μM. Here is the method:
FIG. 9A, FIG. 9B, FIG. 9C, FIG. 9D, FIG. 9E, FIG. 9F, FIG. 9G, and FIG. 9H show Hsp27, HSp70, and Hsp90 expression in PN cells treated with VX-809 and/or cycloheximide. (A) Pkd1 null (PN) cells were treated with VX-809 (10 μM) and/or with cycloheximide (25 μM) for indicated time points before being harvested for the assay. (FIG. 9A) Western blot showing expression of Hsp27, Hsp70, and Hsp90 in VX-809-(16 h), cycloheximide-treated, or control PN cells. ((FIG. 9B. (FIG. 9C, and (FIG. 9D) Columns represent averages±standard errors of Hsp27, Hsp70, and Hsp90 expression in cells treated with VX-809 and/or cycloheximide. ((FIG. 9E) Western blot showing expression of Hsp27, Hsp70, and Hsp90 in PN cells treated with VX-809+cycloheximide or control PN cells. ((FIG. 9F, FIG. 9G, and FIG. 9H) Columns represent averages±standard errors of Hsp27, Hsp70, and Hsp90 expression in cells treated only with cycloheximide or in control PN cells. Data were analyzed by non-parametric t-test. The experiments were repeated 3-5 times. *P<0.05, **P<0.01;
To gain more insight into the mechanism whereby VX-809 alters Hsp protein levels, translation was inhibited by using cycloheximide and the disappearance of the three Hsps was monitored. […] Hsp90 was reduced by approximately 25%, and Hsp27 was unchanged.

Another experiment concerns CFTR. Kind of experiment: Confocal localization of CFTR with ER, Golgi and PM markers. It counts as cell-based. Conditions: treated vs control cells, Pearson's correlation with markers. From the text:
FIG. 18A and FIG. 18B show images of confocal microscopy localization studies of CFTR and localization markers in control and treated cells (FIG. 18A) and graphs showing Pearson's correlation coefficient for CFTR and localization markers in control and VX-809 treated cells (FIG. 18B).
The localization of PC2 and CFTR in control cells was compared to the localization of PC2 and CFTR localization in VX-809 treated cells.

The next experiment has as its system PC2 in Pkd1^RC/RC mice. Briefly: Immunoblot of PC2 protein in kidney tissue, missense model. In kind it is in vivo, mouse. Conditions: treated daily from one month to 6 months. Here is the method:
The levels of PC2 protein were analyzed in two mouse models of ADPKD: Pkd1^fl/fl; Pax8^rtTA; TetO-cre, which is PC1 null, and the Pkd1^R3277C/R3277C (pkd1^RC/RC) which has a missense mutation in PC1. Pkd1^RC/RC mice develop a consistent, slowly progressing polycystic kidney disease. Pkd1^RC/RC mice were treated daily with VX-809, beginning at one month, and euthanized at 6 months.
Wild-type mice were treated without doxycycline (Wt), and Pkd1^RC/RC mice were treated with doxycycline plus DMSO (RC) or with doxycycline plus VX809 (RC+VX809), as indicated. Three mice were analyzed for each treatment.
In Pkd1^RC/RC mice, doxycycline-induced cyst formation decreases PC2 protein.

For `Cc1ccc(NC(=O)C2(c3ccc4c(c3)OC(F)(F)O4)CC2)nc1-c1cccc(C(=O)O)c1` [VX-809, lumacaftor], the “cAMP levels in kidneys” value with cAMP is reported as “significantly decreased”. Besides, the “resting cAMP levels” value in the experiment on cAMP in PN cells (10 μM, 16 h, PN cells, no forskolin) is “significantly decreased”. The “forskolin-induced increase in cAMP” value with cAMP in PN cells (10 μM, 16 h, then forskolin 100 μM 30 min) is given as “reduced”. For the same compound, the “forskolin- or IBMX-induced increases in adenylyl cyclase activity” value with cAMP in PN cells (forskolin in combination with IBMX (data bars 5 and 9, FIG. 4B)) was “did not affect”. In the experiment with cAMP in PN cells (inferred from forskolin/IBMX experiment), the phosphodiesterase activity entry is recorded as “does not affect”. In experiment [1], the AC3 levels result is “decreased” and the AC6 regulation entry is listed as “Regulates AC3 but not AC6”. Besides, in experiment [2], the “Hsp27 level over the 8-h period” value is given as “unchanged” and the “Hsp90 reduction over the 8-h period” value is listed as “approximately 25%”. Also, the “Hsp70 levels over the 8-h period” value in experiment [2] (vs time 0) was “approximately half the level observed at time 0”. The CFTR localization entry in the experiment with CFTR was “statistically significant move of CFTR from the ER to Basolateral and Apical Membrane”. In addition, the “PC2 protein expression (normalized to vinculin)” value in the experiment on PC2 in Pkd1^RC/RC mice is reported as “higher levels of PC2 expression”.

The values above are taken from patent US20220133702A1, “CYSTIC FIBROSIS TRANSMEMBRANE CONDUCTANCE REGULATOR MODULATORS FOR TREATING AUTOSOMAL DOMINANT POLYCYSTIC KIDNEY DISEASE” (The Johns Hopkins University, priority 2020, published 2022).
